Patent US4038407A, “Benzisothiazoline-1,1-dioxide derivatives, compositions and methods” (Boehringer Ingelheim GmbH, priority 1975, dated 1977)
Counter-ions that a name gives are not always drawn.

Assays:
[1] = Acute toxicity in mice; settings: mouse, in vivo, observation time 14 days
Description: The acute toxicity of the compounds in question was determined in mice (observation time: 14 days) after oral or intravenous application. The LD50 was calculated from the percentage of animals which died after different doses within the observation time (see J. Pharmacol. exp. Therap. 96, 99 (1949)): […]

[2] = tested on: isolated, spontaneously beating auricles of guinea pigs; assay: Effect on heart rate in the isolated auricle of the guinea pig; assay type: cell-based; settings: Cavia porcellus; 10^-5 g/ml in organ bath, tyrode solution, 30° C., average of 5 auricles; read-out: Change in heart rate in %
Description: 2. Effect on heart rate in the isolated auricle of the guinea pig:
The effect on isolated, spontaneously beating auricles of guinea pigs of male and female sex having a body weight between 300 and 400 gm were investigated in an organ bath filled with tyrode solution. The nutritive solution was infused with carbogen (95% of O2 and 5% of CO2) and maintained at 30° C. The contractions were registered isometrically with a Statham-Force-transducer on a Grass-polygraph. The test compound was added to the organ bath so that the final concentration was 10^-^5 g/ml in each case. 5 auricles were used for each solution.
The following table gives the percentage decrease in the heart rate from an average of 5 auricles at a test compound concentration of 10^-^5 g/ml).

[3] = tested on: heart rate of guinea pigs under urethane anesthesia; assay: Activity on heart frequency of anesthetized guinea pigs; assay type: in vivo, guinea pig; settings: ECG
Description: 1. Activity on heart frequency of anesthetized guinea pigs:
The heart rate of guinea pigs under urethane anesthesia was registered by an electrocardiogram. The test compound was administered intravenously at increasing dosage increments between 0.5 and 20 mg/kg.

SMILES | LD50 at 336 h ([1]; iv) [mg/kg] | LD50 at 336 h ([1]; po) [mg/kg] | inhibition at 10 µg/mL [2] [%] | Percentage change in heart rate ([3]; 0.5 mg/kg i.v.) [%] | Percentage change in heart rate ([3]; 1.0 mg/kg i.v.) [%] | Percentage change in heart rate ([3]; 2.0 mg/kg i.v.) [%] | Percentage change in heart rate ([3]; 5.0 mg/kg i.v.) [%] | Percentage change in heart rate ([3]; 10.0 mg/kg i.v.) [%] | Percentage change in heart rate ([3]; 20.0 mg/kg i.v.) [%]
COc1ccc(CCN(C)CCCN2Cc3cc(OC)c(OC)cc3C2=O)cc1OC [A, 5,6-Dimethoxy-2N-(3-[α-(3,4-dimethoxy)-phenylethyl-methylamino]-propyl)-phthalimidine hydrochloride] | 98 | 1570 | 52 | -23.5 | -36.1 | -47.2 | -51.6 | -59.1 | -67.2
COc1ccc(CCN(C)CCCN2Cc3cc(OC)c(OC)cc3S2(=O)=O)cc1OC [B, 5,6-Dimethoxy-2-(3-[α-(3,4-dimethoxy)-phenylethyl-methylamino]-propyl)-1,2-benzisothiazoline-1,1-dioxide hydrochloride] | 100 |  | 60 | -9.8 | -20.0 | -27.4 | -37.6 | -46.9 | -53.9
COc1cc2c(cc1OC)C(=O)N(CCCN(C)CCc1ccc3c(c1)OCO3)C2 [D, 5,6-Dimethoxy-2N-(3-[α-(3,4-methylenedioxy)-phenylethylmethylamino]-propyl)-phthalimidine hydrochloride] |  |  | 51 |  |  |  |  |  | 
CN(CCCN1Cc2cc3c(cc2C1=O)OCCO3)CCc1ccc2c(c1)OCO2 [E, 5,6-Ethylenedioxy-2N-(3-[α-(3,4-methylenedioxy)-phenylethyl-methylamino]-propyl)-phthalimidine hydrochloride] |  |  | 48 |  |  |  |  |  | 
